Laboratory results as given in patent US10968199B2, “Cycloalkyl-containing apoptosis signal-regulating kinase 1 inhibitors and methods of use thereof” (ENANTA PHARMACEUTICALS, INC., priority 2018, dated 2021).

Molecular target: ASK1 kinase (Homo sapiens (Human), UniProt Q99683)
Assay: HTRF KinEASE assay of ASK1 kinase inhibition
Assay type: biochemical
Conditions: HTRF KinEASE-STK TR-FRET; 5 nM ASK1, 1 uM STK3 peptide substrate, 100 uM ATP, 3 hours
Method: The ability (IC50) of compounds to inhibit ASK1 kinase activity was determined by HTRF® KinEASE™ Assay System.
ASK1 was purchased from Thermofisher (Catalogue #PV4011), ATP was purchased from Sigma (Catalogue #A7699), HTRF® KinEASE™ Assay System was obtained from Cisbio (Bedford, Mass.). ½ Area plate was purchased from Perkin Elmer (Catalogue # #6005560). HTRF® KinEASE™-STK is a generic method for measuring serine/threonine kinase activities using a time-resolved fluorescence resonance energy transfer (TR-FRET) immunoassay. The IC50 value for each compound was determined in the presence of compound (various concentration from 0 to 10 μM) and a fixed amount of ATP and peptide substrates. The test compound, 1 uM STK3 peptide substrate, and 5 nM of ASK1 kinase are incubated with kinase reaction buffer containing 50 mM HEPES pH 7.5, 0.01% BRIJ-35, 10 mM MgCl2, and 1 mM EGTA for 30 minutes. 100 uM ATP is added to start kinase reaction and incubated for 3 hours. The STK3-antibody labeled with Eu^3+-Cryptate and 125 nM streptavidin-XL665 are mixed in a single addition with stop reagents provided by the Cisbio kit used to stop the kinase reaction. Fluorescence is detected using an Envision Multilabeled 2014 reader from PerkinElmer. The Fluorescence is measured at 615 nm (Cryptate) and 665 nm (XL665) and a ratio of 665 nm/615 nm is calculated for each well. The resulting TR-FRET is proportional to the phosphorylation level. Staurosporine was used as the positive control. IC50 was determined by XLfit 5.3.
By using above method, the inhibition of ASK1 was tested for the compound of formula (I). IC50 ranges are as follows: A<1 nM; 1 nM<B<10 nM; C>10 nM.

ASK1 kinase, sequence (Q99683 whole entry): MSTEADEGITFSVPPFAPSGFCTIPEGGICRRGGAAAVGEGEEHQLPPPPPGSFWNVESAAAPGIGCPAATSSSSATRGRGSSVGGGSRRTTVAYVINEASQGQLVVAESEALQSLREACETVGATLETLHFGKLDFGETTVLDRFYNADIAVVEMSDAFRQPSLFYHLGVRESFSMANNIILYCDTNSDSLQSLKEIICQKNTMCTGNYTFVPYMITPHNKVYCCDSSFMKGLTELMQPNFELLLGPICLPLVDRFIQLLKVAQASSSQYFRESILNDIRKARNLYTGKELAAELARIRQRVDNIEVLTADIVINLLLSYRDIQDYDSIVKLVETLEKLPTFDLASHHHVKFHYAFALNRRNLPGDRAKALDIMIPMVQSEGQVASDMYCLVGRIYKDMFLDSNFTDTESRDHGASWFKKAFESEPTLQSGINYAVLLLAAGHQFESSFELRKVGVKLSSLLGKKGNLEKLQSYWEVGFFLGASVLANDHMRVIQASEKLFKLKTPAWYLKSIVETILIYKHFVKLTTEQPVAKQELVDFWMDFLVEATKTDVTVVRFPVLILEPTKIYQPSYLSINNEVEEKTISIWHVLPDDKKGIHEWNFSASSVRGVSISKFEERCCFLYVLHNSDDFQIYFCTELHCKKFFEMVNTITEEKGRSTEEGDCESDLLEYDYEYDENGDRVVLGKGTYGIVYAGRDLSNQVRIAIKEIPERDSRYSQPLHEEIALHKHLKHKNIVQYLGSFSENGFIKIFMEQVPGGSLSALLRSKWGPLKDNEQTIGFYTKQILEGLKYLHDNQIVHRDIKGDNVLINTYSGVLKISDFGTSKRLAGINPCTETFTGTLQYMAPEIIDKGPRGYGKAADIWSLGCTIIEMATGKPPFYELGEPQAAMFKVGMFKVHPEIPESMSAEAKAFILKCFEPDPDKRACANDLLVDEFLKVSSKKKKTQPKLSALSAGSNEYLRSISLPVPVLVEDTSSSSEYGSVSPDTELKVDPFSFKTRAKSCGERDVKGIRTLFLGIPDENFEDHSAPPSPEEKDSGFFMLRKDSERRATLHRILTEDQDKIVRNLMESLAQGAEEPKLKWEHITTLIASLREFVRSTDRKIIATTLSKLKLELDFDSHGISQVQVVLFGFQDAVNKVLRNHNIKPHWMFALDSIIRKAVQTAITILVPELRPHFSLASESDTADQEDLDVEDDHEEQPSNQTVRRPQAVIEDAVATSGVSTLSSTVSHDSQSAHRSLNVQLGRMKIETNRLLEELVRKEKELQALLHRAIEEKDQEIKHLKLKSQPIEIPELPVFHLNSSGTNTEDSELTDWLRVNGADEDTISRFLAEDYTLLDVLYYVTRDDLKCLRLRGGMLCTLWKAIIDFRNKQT

Row | IC50 [nM] | SMILES
1 | 1 to 10 | COc1cc(C)c(C2CC2NC(=O)N(C)CCC(F)(F)F)cc1C(=O)Nc1cccc(-c2nncn2C(C)C)n1 (centres unmarked) [Example 18]
2 | > 10 | Cc1cnc(C(=O)Nc2cccc(-c3nncn3C(C)C)n2)cc1C1CC1NC(=O)OCC(F)(F)F (centres unmarked) [Example 19]
3 | 1 to 10 | COc1cc(C)c(C2CC2NS(=O)(=O)N(C)C)cc1C(=O)Nc1cccc(-c2nncn2C(C)C)n1 (centres unmarked) [Example 20]
4 | 1 to 10 | COc1cc(C)c(C2CC2NS(=O)(=O)CCC(F)(F)F)cc1C(=O)Nc1cccc(-c2nncn2C(C)C)n1 (centres unmarked) [Example 21]
5 | 1 to 10 | COc1cc(C)c(C2CC2NC(=O)c2ccc(F)cc2)cc1C(=O)Nc1cccc(-c2nncn2C(C)C)n1 (centres unmarked) [Example 22]
6 | 1 to 10 | COc1cc(C)c(C2CC2NC(=O)C(C)(C)C)cc1C(=O)Nc1cccc(-c2nncn2C(C)C)n1 (centres unmarked) [Example 23]
7 | 1 to 10 | Cc1cc(F)c(C(=O)Nc2cccc(-c3nncn3[C@H](C)CO)n2)cc1C1CC1C(=O)N1CCC(F)(F)C1 (some centres unmarked) [Example 24]
8 | > 10 | Cc1cc(F)c(C(=O)Nc2cccc(-c3nncn3[C@H](C)CO)n2)cc1C1CC1NC(=O)OCC(F)(F)F (some centres unmarked) [Example 25]
9 | 1 to 10 | Cc1cc(F)c(C(=O)Nc2cccc(-c3nncn3[C@H](C)CO)n2)cc1C1CC1NC(=O)N(C)CCC(F)(F)F (some centres unmarked) [Example 26]
10 | 1 to 10 | Cc1cc(F)c(C(=O)Nc2cccc(-c3nncn3[C@H](C)CO)n2)cc1C1CC1NS(=O)(=O)CCC(F)(F)F (some centres unmarked) [Example 27]
11 | 1 to 10 | Cc1cc(F)c(C(=O)Nc2cccc(-c3nncn3[C@H](C)CO)n2)cc1C1CC1NS(=O)(=O)N(C)C (some centres unmarked) [Example 28]
12 | 1 to 10 | Cc1cc(F)c(C(=O)Nc2cccc(-c3nncn3[C@H](C)CO)n2)cc1C1CC1NC(=O)C(C)(C)C (some centres unmarked) [Example 29]

Further lines, the compound ahead of its results:

Row | SMILES | IC50 [nM]
13 | CCOC(=O)C1CC1c1cc(C(=O)Nc2cccc(-c3nncn3C(C)C)n2)c(F)cc1C (centres unmarked) [Example 1, ethyl 2-(4-fluoro-5-((6-(4-isopropyl-4H-1,2,4-triazol-3-yl)pyridin-2-yl)carbamoyl)-2-methylphenyl)cyclopropane-1-carboxylate] | 1 to 10
14 | Cc1cc(F)c(C(=O)Nc2cccc(-c3nncn3C(C)C)n2)cc1C1CC1C(=O)O (centres unmarked) [Example 2, 2-(4-fluoro-5-((6-(4-isopropyl-4H-1,2,4-triazol-3-yl)pyridin-2-yl)carbamoyl)-2-methylphenyl)cyclopropane-1-carboxylic acid] | > 10
15 | Cc1cc(F)c(C(=O)Nc2cccc(-c3nncn3C(C)C)n2)cc1C1CC1C(=O)NC1CC1 (centres unmarked) [Example 3, 5-(2-(cyclopropylcarbamoyl)cyclopropyl)-2-fluoro-N-(6-(4-isopropyl-4H-1,2,4-triazol-3-yl)pyridin-2-yl)-4-methylbenzamide] | > 10
16 | Cc1cc(F)c(C(=O)Nc2cccc(-c3nncn3C(C)C)n2)cc1C1CC1NC(=O)OC(C)(C)C (centres unmarked) [Example 4, tert-butyl (2-(4-fluoro-5-((6-(4-isopropyl-4H-1,2,4-triazol-3-yl)pyridin-2-yl)carbamoyl)-2-methylphenyl)cyclopropyl)carbamate] | 1 to 10
17 | Cc1cc(F)c(C(=O)Nc2cccc(-c3nncn3C(C)C)n2)cc1C1CC1NC(=O)N1CCC(F)(F)C1 (centres unmarked) [Example 5, 3,3-difluoro-N-(2-(4-fluoro-5-((6-(4-isopropyl-4H-1,2,4-triazol-3-yl)pyridin-2-yl)carbamoyl)-2-methylphenyl)cyclopropyl)pyrrolidine-1-carboxamide] | > 10
18 | Cc1cc(F)c(C(=O)Nc2cccc(-c3nncn3C(C)C)n2)cc1C1CC1NC(=O)c1ccc(F)cc1 (centres unmarked) [Example 6, 2-fluoro-5-(2-(4-fluorobenzamido)cyclopropyl)-N-(6-(4-isopropyl-4H-1,2,4-triazol-3-yl)pyridin-2-yl)-4-methylbenzamide] | > 10
19 | Cc1cc(F)c(C(=O)Nc2cccc(-c3nncn3C(C)C)n2)cc1C1CC1NS(=O)(=O)N(C)C (centres unmarked) [Example 7, 5-(2-((N,N-dimethylsulfamoyl)amino)cyclopropyl)-2-fluoro-N-(6-(4-isopropyl-4H-1,2,4-triazol-3-yl)pyridin-2-yl)-4-methylbenzamide] | > 10
20 | Cc1cnc(C(=O)Nc2cccc(-c3nncn3C(C)C)n2)cc1C1CC1NC(=O)OC(C)(C)C (centres unmarked) [Example 8, tert-butyl (2-(2-((6-(4-isopropyl-4H-1,2,4-triazol-3-yl)pyridin-2-yl)carbamoyl)-5-methylpyridin-4-yl)cyclopropyl)carbamate] | > 10
21 | Cc1cnc(C(=O)Nc2cccc(-c3nnnn3[C@H](C)CO)n2)cc1C1CC(NC(=O)OC(C)(C)C)C1 (stereo partly drawn) [Example 9, tert-butyl (R)-(3-(2-((6-(1-(1-hydroxypropan-2-yl)-1H-tetrazol-5-yl)pyridin-2-yl)carbamoyl)-5-methylpyridin-4-yl)cyclobutyl)carbamate] | > 10
22 | Cc1cc(F)c(C(=O)Nc2cccc(-c3nncn3C(C)C)n2)cc1C1CC1NC(=O)OCC(F)(F)F (centres unmarked) [Example 10] | 1 to 10
23 | Cc1cc(F)c(C(=O)Nc2cccc(-c3nncn3C(C)C)n2)cc1C1CC1NS(=O)(=O)C1CC1 (centres unmarked) [Example 11] | 1 to 10
24 | Cc1cc(F)c(C(=O)Nc2cccc(-c3nncn3C(C)C)n2)cc1C1CC1C(=O)N1CCC(F)(F)C1 (centres unmarked) [Example 12] | > 10
25 | Cc1cc(F)c(C(=O)Nc2cccc(-c3nncn3C(C)C)n2)cc1C1CC1NC(=O)N(C)CCC(F)(F)F (centres unmarked) [Example 13] | > 10
26 | Cc1cc(F)c(C(=O)Nc2cccc(-c3nncn3C(C)C)n2)cc1C1CC1NC(=O)C(C)(C)C (centres unmarked) [Example 14] | > 10
27 | CCOC(=O)C1CC1c1cc(C(=O)Nc2cccc(-c3nncn3C(C)C)n2)ncc1C (centres unmarked) [Example 15] | 1 to 10
28 | COc1cc(C)c(C2CC2C(=O)N2CCC(F)(F)C2)cc1C(=O)Nc1cccc(-c2nncn2C(C)C)n1 (centres unmarked) [Example 16] | 1 to 10
29 | COc1cc(C)c(C2CC2NC(=O)OCC(F)(F)F)cc1C(=O)Nc1cccc(-c2nncn2C(C)C)n1 (centres unmarked) [Example 17] | 1 to 10
